Reference: EP0385445A2, “Method of forming a suspension and composition formed by said method” (Horikoshi, Isamu, priority 1989, dated 1990)
Where a SMILES comes first, the peptide text is derived from it. Bridges are numbered along the chain shown (N, C = ends).

What was measured:
[1] = Absorption of vitamin A through lymphatic vessels after injection of emulsions into the loop of small intestines; format: in vivo, Wistar male rats
Description: Wistar male rats each weighing about 400 g were starved for 24 hours. The starved rats were anesthetized by intraperitoneal administration of pentobarbital. Thereafter, the rats were incised in the belly and silicon cannulas were inserted into the area between the pylorus of the stomach and the duodenum and into the ileocecal area. Through the upper cannula, liquid drugs (5 ml) composed of the emulsions prepared in Example 1 were injected into the loop of small intestines (duodenum, jejunum and ileum) and the cannula was closed with a clamp.
Blood and lymph fluid were collected from the hip artery and the lymph in the thoracic duct at given time intervals and the concentrations of vitamin A in the two fluids were measured. A similar experiment was conducted on biliary fistula rats from which bile was excreted through a cannula inserted into the bile duct, and comparison was made with intact rats which had not received such a treatment.
[…] After extraction with cyclohexane, the concentration of vitamin A in each sample was measured by fluorometry at 480 nm with fluorescence excited at 340 nm. After being absorbed by the small intestines, vitamin A forms chylomicron, the greater part of which is known to be transferred into the lymph system, not the blood system.

[2] = Measurement of emulsion activity (light transmittance); format: physicochemical; conditions: emulsion containing the labelled fat or oil; Fig. 6
Description: After heating at 40 - 45°C for 5 minutes, the mixture was stirred with a Polytron homogenizer at a maximum speed for 1 minute to obtain an emulsion (which contained 5 wt% of the oil).
Each of the emulsions was put into a test tube, which was readjusted to a vertical position and left to stand at room temperature. At given time intervals, 0.2-ml portions of each emulsion were collected from the bottom of the test tube and mixed with 3.8 ml of an aqueous solution of 0.1% sodium dodecylsulfate. The light transmittance of each sample was measured under various conditions and the results of measurements are shown in Figs. 3 - 6.

[3] = Concentration of eel calcitonin in blood after injection into the duodenum (Example 11); format: in vivo, Wistar male rats; conditions: male, Wistar, rat, 50 ug per rat, 100 µg/ml, 0.5 ml into the duodenum
Description: Wistar male rats each weighing ca. 200 g were cannulated at the duodenum and tail vein under anesthetization with either and restrained in Bollman cages. […] A control group was injected with 0.5 ml of PBS(-), and a calcitonin control group was injected with 0.5 ml of a solution of calcitonin in phosphate buffer saline (100 µg/ml). Blood samples were taken from these control-groups according to the same schedule as in the case of the emulsion treated group. Thirty minutes before the administration of calciton, calcium chloride in physiological saline was administered intraperitoneally in an amount of 60 mg/kg in order to stimulate the secretion of endogenous calcitonin. Each rat group consisted of 6 animals.

[4] = Oral absorption of lipid-soluble drugs reduced to microspheres with MFGM; conditions: drug reduced to microspheres with MFGM
[5] = rat, in vivo
Description: Wistar male rats each weighing ca. 300 g were starved overnight. Thereafter, their skin above the right common carotid artery was incised and a cannula was inserted into the artery. […] The so prepared emulsion was administered orally to the rats. […] The dose of hydrocortisone was 1.5 mg/kg. After hydrocortisone administration, blood samples were taken at regular time intervals. Feces and urine were collected and the rats were killed 49 hours after the administration. The digestive tracts, their contents and various organs were separated and the content of hydrocortisone in each site was determined by radioactivity measurement.

**Q.** For CCCCCCCC/C=C\CCCCCCCC(=O)O [oleic acid], which “concentration of vitamin A in lymph (ranking)” value ([1]; intact rats, emulsion in labelled fat or oil, content 5%, vitamin A 2.5 mg per rat, Fig. 9) is on record?
**A.** The value was “lowest level”.

**Q.** And the “increase in emulsion activity” value [2]?
**A.** The value was “highest increase”.

**Q.** With CC(C)C[C@H](NC(=O)[C@H](CCCCN)NC(=O)CNC(=O)[C@H](CC(C)C)NC(=O)[C@@H](NC(=O)[C@@H]1CSSC[C@H](N)C(=O)N[C@@H](CO)C(=O)N[C@@H](CC(N)=O)C(=O)N[C@@H](CC(C)C)C(=O)N[C@@H](CO)C(=O)N[C@@H]([C@@H](C)O)C(=O)N1)C(C)C)C(=O)N[C@@H](CO)C(=O)N[C@@H](CCC(N)=O)C(=O)N[C@@H](CCC(=O)O)C(=O)N[C@@H](CC(C)C)C(=O)N[C@@H](Cc1c[nH]cn1)C(=O)N[C@@H](CCCCN)C(=O)N[C@@H](CC(C)C)C(=O)N[C@@H](CCC(N)=O)C(=O)N[C@H](C(=O)N[C@@H](Cc1ccc(O)cc1)C(=O)N1CCC[C@H]1C(=O)N[C@@H](CCCNC(=N)N)C(=O)N[C@H](C(=O)N[C@@H](CC(=O)O)C(=O)N[C@H](C(=O)NCC(=O)N[C@@H](C)C(=O)NCC(=O)N[C@H](C(=O)N1CCC[C@H]1C(N)=O)[C@@H](C)O)C(C)C)[C@@H](C)O)[C@@H](C)O [Calcitonin treated] (H-CSNLSTCVLGKLSQELHKLQTYPRTDVGAGTP-NH2; disulfide 1-7 (inferred); N-terminus and C-terminus assumed) as the compound, how does the level at 0 h [3]; 0 read?
**A.** The level at 0 h was 0.1 ± 0.08 ng/mL.

**Q.** And the level at 0.5 h ([3]; 30 min.)?
**A.** The level at 0.5 h was 0.7 ± 0.09 ng/mL.

**Q.** What about the level at 1 h ([3]; 60 min.) of the same compound?
**A.** The level at 1 h was 0.7 ± 0.22 ng/mL.

**Q.** What about the level at […] ([3]; 90 min.) of the same compound?
**A.** The level at […] was 0.8 ± 0.31 ng/mL.

**Q.** And the level at 2 h ([3]; 120 min.)?
**A.** Its level at 2 h is 0.6 ± 0.4 ng/mL.

**Q.** With vitamin A as the compound, how does the “concentration of vitamin A in lymph” value ([1]; rat, in vivo) read?
**A.** Its value is “dropped to very low levels”.

**Q.** What about the “vitamin A in the blood” value ([1]; rat, in vivo) of the same compound?
**A.** Its value is “hardly detectable”.

**Q.** Which “increase in emulsion activity” value [2] does the source give for CCCCCCCC/C=C\CCCCCCCC(=O)OCC(O)CO (stereo not drawn) [monoolein] here?
**A.** Its value is “least increase”.

**Q.** For COC1=C(OC)C(=O)C(CCCCCCCCCCO)=C(C)C1=O [avan], which “ability of MFGM to promote the absorption” value [4] is on record?
**A.** The value was “also observed”.

**Q.** With Tween 80 as the compound, how does the “residual in the body” value [5] read?
**A.** The value was 12.41 % of dose.
